Reference: ChEMBL document CHEMBL1130708, “Cytotoxic cycloartane-type triterpenes from Combretum quadrangulare” (1998)

Experiment: Compound was tested for cytotoxic activity against murine colon 26-L5 carcinoma cells
Assay type: functional
Details: Mus musculus; read-out: ED50 (the source's name)

Row | Structure (SMILES) | EC50
1 | COC(=O)[C@]1(C)[C@@H](O)C[C@H](O)[C@]23C[C@]24CC[C@]2(C)[C@@H]([C@H](C=O)C/C=C/C(C)(C)O)CC[C@@]2(C)[C@@H]4CC[C@@H]13 | 43.8 µM
2 | C=C(CC[C@@H](C)[C@H]1CC[C@@]2(C)[C@@H]3CC[C@H]4[C@](C)(C(=O)O)[C@@H](O)C[C@H](OC(C)=O)[C@@]45C[C@@]35CC[C@]12C)C(C)C | 57.6 µM
3 | C=C(C)[C@@H]1CC[C@H]([C@H]2CC[C@@]3(C)[C@@H]4CC[C@H]5[C@](C)(C(=O)OC)[C@@H](O)C[C@H](O)[C@@]56C[C@@]46CC[C@]23C)[C@@H](OC)O1 | 18.1 µM
4 | C=C(CC[C@@H](C)[C@H]1CC[C@@]2(C)[C@@H]3CC[C@H]4[C@](C)(C(=O)O)[C@@H](O)C[C@H](O)[C@@]45C[C@@]35CC[C@]12C)C(C)C | 49.6 µM
5 | C=C(CC[C@@H](C)[C@H]1CC[C@@]2(C)[C@@H]3CC[C@H]4[C@](C)(C(=O)OC)[C@@H](OC(C)=O)C[C@@H]5O[C@H](C[C@]12C)[C@]31C[C@]541)C(C)C | 77.8 µM
6 | C=C(CC[C@@H](C)[C@H]1CC[C@@]2(C)[C@@H]3CC[C@H]4[C@](C)(C(=O)O)[C@@H](O)CC[C@@]45C[C@@]35CC[C@]12C)C(C)C | 62.4 µM
7 | COC(=O)[C@]1(C)[C@@H](O)C[C@H](O)[C@]23C[C@]24CC[C@]2(C)[C@@H]([C@H](C=O)C/C=C/C(C)(C)OO)CC[C@@]2(C)[C@@H]4CC[C@@H]13 | 9.54 µM
8 | C=C(CC[C@@H](C)[C@H]1CC[C@@]2(C)[C@@H]3CC[C@H]4[C@](C)(C(=O)O)[C@@H](O)CC(=O)[C@@]45C[C@@]35CC[C@]12C)C(C)C | 58.6 µM
9 | C=C(CC[C@@H](C)[C@H]1CC[C@@]2(C)[C@@H]3CC[C@H]4[C@](C)(C(=O)O)[C@@H](OC(C)=O)C[C@H](OC(C)=O)[C@@]45C[C@@]35CC[C@]12C)C(C)C | 52.5 µM
10 | C=C(CC[C@@H](C)[C@H]1CC[C@@]2(C)[C@@H]3CC[C@H]4[C@](C)(C(=O)OC)[C@@H](O)C[C@@H]5O[C@H](C[C@]12C)[C@]31C[C@]541)C(C)C | 5.42 µM
